Values after ≈ are worked out from the molar mass of the structure shown. Active and inactive are the calls of the source. The calls are words filed in the database; no cut-off is given here.
Assays:
Penicillium chrysogenum = test: Antifungal activity against Penicillium notatum; format: functional
[1] = test system: Enterobacter cloacae subsp. dissolvens; test: Antibacterial activity against Enterobacter dissolvens; format: functional
Paecilomyces variotii = test: Antifungal activity against Paecilomyces variotii; format: functional
Lepidium sativum = test: Phytotoxicity against Lepidium sativum assessed per disk; format: functional, organism-based
Rhizomucor miehei = test: Antifungal activity against Mucor miehei; format: functional
L1210 = test: Cytotoxicity against mouse L1210 cells after 48 hrs; format: functional, cell-based; conditions: L1210, 48 h
Micrococcus luteus = test: Antibacterial activity against Micrococcus luteus; format: functional

SMILES | Activity (Penicillium chrysogenum) | Activity [1] | Activity (Paecilomyces variotii) | Activity (Lepidium sativum) | Activity (Rhizomucor miehei) | IC50 (L1210) [µg/mL] | Activity (Micrococcus luteus) | MIC (Penicillium chrysogenum) [µg/mL] | MIC [1] [µg/mL] | MIC (Paecilomyces variotii) [µg/mL] | IC50 (Lepidium sativum) [µg] | MIC (Rhizomucor miehei) [µg/mL] | MIC (Micrococcus luteus) [µg/mL]
COC(=O)c1c(OC)c(C)c(OCC=C(C)C)c2c1C(=O)OC2 | inactive | inactive | inactive | inactive | inactive | 25 (≈ 78 µM) | inactive | – | – | – | – | – | –
COc1c(C)c(OCC=C(C)C)c2c(c1C(=O)O)C(=O)OC2 | inactive | inactive | inactive | inactive | inactive | 50 (≈ 163 µM) | inactive | – | – | – | – | – | –
COc1cc2c(c(O)c1C)C(=O)CCC2O (stereo unspecified) | – | – | – | – | – | 25 (≈ 112 µM) | – | 100 (≈ 450 µM) | 100 (≈ 450 µM) | 100 (≈ 450 µM) | 100 | 100 (≈ 450 µM) | 100 (≈ 450 µM)

From ChEMBL document CHEMBL1146441, “Naphthalenone and Phthalide Metabolites from Lachnum papyraceum 1” (J Nat Prod, 1997)
